The test system of series [1] is O=C(Cc1cccs1)N[C@@H]1C(=O)N2C(C(=O)O)=C(/C=C/c3ccc([N+](=O)[O-])cc3[N+](=O)[O-])CS[C@H]12. The series is described as follows: Steady-state kinetics with β-lactam substrates. Particulars: other: SHV-1, substrate, 10 mM PBS pH 7.4, room temperature. Format: biochemical, Klebsiella pneumoniae.
The subject of series [2] is CCN1CCN(C(=O)N[C@@H](C(=O)N[C@@H]2C(=O)N3[C@@H]2SC(C)(C)[C@@H]3C(=O)O)c2ccccc2)C(=O)C1=O. As to the kind of experiment: Steady-state kinetics with β-lactam substrates. The conditions noted are these: other: SHV-1, substrate, 10 mM PBS pH 7.4, room temperature. Format: biochemical, Klebsiella pneumoniae.
The subject of series [3] is CC(=O)OCC1=C(C(=O)O)N2C(=O)[C@@H](NC(=O)Cc3cccs3)[C@H]2SC1. The series is described as follows: Steady-state kinetics with β-lactam substrates. Particulars: other: SHV-1, substrate, 10 mM PBS pH 7.4, room temperature. Format: biochemical, Klebsiella pneumoniae.
For series [4], the system named is E. coli DH10B expressing blaSHV K234A. Format: cell-based. Particulars: inhibitor in the presence of 50 µg/mL ampicillin.
Series [5] has as its system E. coli DH10B expressing blaSHV-1. As to the kind of experiment: MIC by Mueller-Hinton agar dilution. Format: cell-based. Particulars: E. coli blaSHV-1; inhibitor in the presence of 50 µg/mL ampicillin. (In agar dilution, organisms are placed on agar that contains the substance at set levels.)
The test system of the next series is E. coli DH10B. It is filed as cell-based. Particulars: inhibitor in the presence of 50 µg/mL ampicillin.
In series [6] the test system is E. coli DH10B expressing blaSHV K234R. Format: cell-based. Particulars: inhibitor in the presence of 50 µg/mL ampicillin.
Series [7] concerns the target T1, SHV-1 β-lactamase (Klebsiella pneumoniae, UniProt P0AD64).
Series [8] concerns the target T2, SHV K234R β-lactamase (Klebsiella pneumoniae, UniProt P0AD64, K230R). As to the kind of experiment: Far-UV circular dichroism and thermal denaturation in the presence of inhibitors. Particulars: for ΔHVH: K234R 10 µM with 50 µM inhibitor, van't Hoff plot; for effect on secondary structure (far UV CD): K234R 10 µM, 50 µM inhibitor. (In general: Circular dichroism is widely used to follow secondary structure.)

For series [9], the target named is T2, SHV K234R β-lactamase. The series is described as follows: Steady-state kinetics with β-lactam substrates. It is filed as biochemical. The conditions noted are these: K234R relative to SHV-1, from kcat/Km (eq 3).
The subject of series [10] is E. coli DH10B expressing blaSHV K234X (other 16 amino acid substitutions). The series is described as follows: MIC by Mueller-Hinton agar dilution. It is filed as cell-based. Particulars: Escherichia coli, E. coli blaSHV K234X (other 16 substitutions); β-lactam alone.
The target in series [11] is T2, SHV K234R β-lactamase. As to the kind of experiment: Ki by direct competition assay with nitrocefin. Format: biochemical. Particulars: for fold lower Ki for K234R relative to SHV-1: K234R vs SHV-1.
The target of series [12] is T1, SHV-1 β-lactamase. It is filed as biochemical.
The mark [13] stands for this setting: SHV-1 10 µM with 50 µM inhibitor, van't Hoff plot.

By Km is commonly meant the substrate concentration at which the rate is half of its maximum. One may read the kcat as the number of substrate molecules converted per active site and unit of time at saturation. The term kcat/Km denotes the second-order rate constant that governs catalysis at low substrate concentration. What is called MIC is the lowest concentration that inhibits growth of the organism.

Like-named read-outs stand apart in the source and are kept apart here.

“SHV-1 β-lactamase (Klebsiella pneumoniae)”: in series [1], the Km was 24.7 ± 5 µM, the kcat was found to be 348 ± 21.5 s⁻¹ and the specificity constant (kcat/Km) is 1.41e+07 ± 220000 M⁻¹ s⁻¹. Besides, in series [2], the Km is on record as 74.6 ± 11.7 µM, the kcat came to 1180 ± 65 s⁻¹ and the specificity constant (kcat/Km) came out at 1.58e+07 ± 600000 M⁻¹ s⁻¹. For the same molecule, in [3], the Km was found to be 48.9 ± 11.2 µM, the kcat amounted to 42.6 ± 3.4 s⁻¹ and the kcat/Km was 870000 ± 300000 M⁻¹ s⁻¹.
Take ampicillin/tazobactam [amp/ tazo]: the MIC is given as less than 0.06 µg/mL in series [4], 128 µg/mL in series [5], less than 0.06 µg/mL with E. coli DH10B and 16 µg/mL in series [6].
In the case of `O=C(O)[C@H]1/C(=C/CO)O[C@@H]2CC(=O)N21` [Clavulanate, clavulanate], on SHV-1 β-lactamase [7], the “effect on secondary structure (far UV CD)” value (shortened to “effect”) was “affects the secondary structure of both enzymes”, the ΔHVH stood at 113 kcal/mol and the ΔΔGu result is listed as “+0.28 kcal/mol”. For the same molecule, on SHV K234R β-lactamase [8], the ΔHVH is given as 68 kcal/mol and the “effect” value is on record as “affects the secondary structure of both enzymes”.
Take `C[C@]1(Cn2ccnn2)[C@H](C(=O)O)N2C(=O)C[C@H]2S1(=O)=O` [Tazobactam, tazobactam]: the figures for the ΔHVH at SHV-1 β-lactamase [7] (setting [13]) and at SHV K234R β-lactamase [8] were 149 kcal/mol and 114 kcal/mol, respectively. Besides, the “effect” value is “not SHV-1” at SHV-1 β-lactamase [7] (SHV-1 10 µM, 50 µM inhibitor) and “affect the secondary structure” at SHV K234R β-lactamase [8].
With `O=C(Cc1cccs1)N[C@@H]1C(=O)N2C(C(=O)O)=C(/C=C/c3ccc([N+](=O)[O-])cc3[N+](=O)[O-])CS[C@H]12` [Nitrocefin, nitrocefin], the ΔΔGcat entry on SHV K234R β-lactamase [9] is recorded as “+0.70 kcal/mol”.
The same measure, in the same setting: the entry for `CC(=O)OCC1=C(C(=O)O)N2C(=O)[C@@H](NC(=O)Cc3cccs3)[C@H]2SC1` [thin, cephalothin] is “+1.00 kcal/mol”.
Take ampicillin/clavulanate [amp/ clav]: the MIC was less than 0.06 µg/mL in [4], 4 µg/mL in series [5], less than 0.06 µg/mL with E. coli DH10B and 16 µg/mL in series [6].
For `CC1(C)S[C@@H]2[C@H](NC(=O)[C@H](N)c3ccccc3)C(=O)N2[C@H]1C(=O)O` [amp, ampicillin], the MIC in series [10] is not above 4 µg/mL.
On to ampicillin/sulbactam [amp/ sul], for which the MIC in series [4] was less than 0.06 µg/mL; in series [5], 512 µg/mL; in the series on E. coli DH10B, less than 0.06 µg/mL; in series [6] it was 64 µg/mL.
As to `O=C(Cc1cccs1)N[C@@H](Cc1cccc(C(=O)O)c1)B(O)O` [Chiral Cephalothin BATSI], the “fold difference in Ki, achiral vs chiral cephalothin BATSI” value at SHV K234R β-lactamase [11] (K234R) is given as 5000 fold. Besides, the “fold lower Ki for K234R relative to SHV-1” value on SHV K234R β-lactamase [11] came to 38 fold. Also, the “fold lower Ki than the achiral BATSI” value on SHV-1 β-lactamase [12] was 44 fold.
Consider `O=C(Cc1cccs1)NCB(O)O` [Achiral Cephalothin BATSI], for which the ΔHVH is 160 kcal/mol at SHV-1 β-lactamase [7] (setting [13]) and 100 kcal/mol on SHV K234R β-lactamase [8]. On SHV K234R β-lactamase [8], the “effect” value was “affect the secondary structure”.
Take `CC1(C)[C@H](C(=O)O)N2C(=O)C[C@H]2S1(=O)=O` [Sulbactam, sulbactam]: at SHV-1 β-lactamase [7], the “effect” value was “not SHV-1”, the ΔHVH was determined as 183 kcal/mol and the ΔΔGu entry was “+0.07 kcal/mol”. Besides, the “effect” value at SHV K234R β-lactamase [8] was “affect the secondary structure”.
Regarding `CCN1CCN(C(=O)N[C@@H](C(=O)N[C@@H]2C(=O)N3[C@@H]2SC(C)(C)[C@@H]3C(=O)O)c2ccccc2)C(=O)C1=O` [pip, piperacillin], the ΔΔGcat entry at SHV K234R β-lactamase [9] is “+0.33 kcal/mol”. This molecule registered an MIC in series [10] not above 8 µg/mL.
With `N[C@@H](C(=O)N[C@@H](Cc1cccc(C(=O)O)c1)B(O)O)c1ccccc1` [Chiral Ampicillin BATSI], the “fold lower Ki for K234R relative to SHV-1” value at SHV K234R β-lactamase [11] is 23 fold. Moreover, the ΔHVH on SHV-1 β-lactamase [7] (setting [13]) was 143 kcal/mol; on SHV K234R β-lactamase [8] it was 119 kcal/mol. Also, the “increase of melting temperature” value at SHV K234R β-lactamase [8] (K234R with inhibitor vs apo) stood at 6.6 °C.

(Values after publication PMC3943433 (Journal of medicinal chemistry, 2013).)
